Experimental data: patent US20200206291A1, “COMPOSITION FOR PREVENTING OR TREATING OBESITY, COMPRISING SUPPLEMENT FOR REDUCING BODY FAT AND B-GLUCAN AS ACTIVE INGREDIENTS” (QUEGEN BIOTECH CO., LTD., priority 2017, published 2020)

Tests used:
Assay type in all cases: in vivo, C57BL/6 mice
[1] = Summary of the animal tests: supplement for reducing body fat and β-glucan, alone or co-administered; conditions: administered alone
Experimental: (§1) Six-week-old wild-type C57BL/6 mice, to be subjected to body fat monitoring, were purchased, acclimated for 3 days and then raised. Schizophyllum commune-derived β-glucan (SPG with the structure of β-(1,6)-branched (1,3)-glucan; Quegen Biotech Co., Ltd.) and a phosphate buffer solution (PBS) were orally administered as test drugs in combination or independently once every day. Specifically, 0.2 mL of CLA (concentration=10 mg/mL), and after 30 minutes, 0.2 mL of Schizophyllum commnune-derived β-glucan (SPG with the structure of β-(1,6)-branched (1,3)-glucan; concentration=0.4 mg/mL) were orally administered to Experimental Group 1-1. In addition, 0.2 mL of CLA (concentration=10 mg/mL), and after 30 minutes, 0.2 mL of Schizophyllum commune-derived β-glucan (SPG with the structure of β-(1,6)-branched (1,3)-glucan; concentration=2 mg/mL) were orally administered to Experimental Group 1-2. Meanwhile, 0.2 mL of CLA (concentration=10 mg/mL) was orally administered to Comparative Experimental Group 1-1. In addition, 0.2 mL of Schizophyllum commune-derived β-glucan (SPG with the structure of β-(1,6)-branched (1,3)-glucan; concentration=2 mg/mL) was orally administered to Comparative Experimental Group 1-2, and 0.2 mL of PBS was orally administered to Comparative Experimental Group 1-3.
(§2) Six-week-old wild-type C57BL/6 mice, to be subjected to body fat monitoring, were purchased, acclimated for 3 days and then raised. HCA (Sigma-Aldrich), Schizophyllum commune-derived β-glucan (SPG with the structure of β-(1.6)-branched (1,3)-glucan; Quegen Biotech Co., Ltd.) and a phosphate buffer solution (PBS) were orally administered as test drugs in combination or independently once every day. Specifically, 0.2 mL of HCA (concentration=10 mg/mL), and after 30 minutes, 0.2 mL of Schizophyllum commune-derived β-glucan (SPG with the structure of β-(1,6)-branched (1,3)-glucan; concentration=0.4 mg/mL) were orally administered to Experimental Group 2-1. In addition, 0.2 mL of HCA (concentration=10 mg/mL), and after 30 minutes, 0.2 mL of Schizophyllum commune-derived β-glucan (SPG with the structure of β-(1,6)-branched (1,3)-glucan; concentration=2 mg/mL) were orally administered to Experimental Group 2-2. Meanwhile, 0.2 mL of HCA (concentration=10 mg/mL) was orally administered to Comparative Experimental Group 2-1. In addition, 0.2 mL of Schizophyllum commune-derived β-glucan (SPG with the structure of 3-(1.6)-branched (1,3)-glucan:concentration=2 mg/mL) was orally administered to Comparative Experimental Group 2-2, and 0.2 mL of PBS was orally administered to Comparative Experimental Group 2-3.

[2] = Serum analysis of mice sacrificed after 20 weeks (Example 2, FIG. 7); conditions: compared to Comparative Experimental Group 2-3 (PBS)
Experimental: as §2, with “2-3. In addition, in Experimental Groups 2-1 and 2-2 and Comparative Experimental Groups 2-1 to 2-3, the mice were sacrificed after 20 weeks of administering the test drugs, and then subjected to serum analysis, and the result is shown in FIG. 7.” for “2-3.”

[3] = Body weight of mice measured every week for 20 weeks, HCA with or without SPG (Example 2, FIG. 5); conditions: oral, weekly over 20 weeks; compared to Comparative Experimental Group 2-3 (PBS)
Experimental: as §2, with “In addition, 0.2 mL of Schizophyllum commune-derived β-glucan (SPG with the structure of 3-(1.6)-branched (1,3)-glucan:concentration=2 mg/mL) was orally administered to Comparative Experimental Group 2-2, and 0.2 mL of PBS was orally administered to Comparative Experimental Group 2-3.” left out
Specifically, in Experimental Groups 2-1 and 2-2 and Comparative Experimental Groups 2-1 to 2-3, the body weights of the mice were measured every week for 20 weeks after the start of administration of the test drugs, and the result is shown in FIG. 5.

[4] = Body weights and tissue weights of mice sacrificed after 20 weeks (Example 2, FIG. 6); conditions: compared to Comparative Experimental Group 2-3 (PBS)
Experimental: as §2
In addition, in Experimental Groups 2-1 and 2-2 and Comparative Experimental Groups 2-1 to 2-3, the mice were sacrificed after 20 weeks of administering the test drugs, and then body weights and tissue weights thereof measured, and the result is shown in FIG. 6.

[5] = Body weight of mice measured every week for 28 weeks, CLA with or without SPG (Example 1, FIG. 2); conditions: oral, weekly over 28 weeks; compared to Comparative Experimental Group 1-3 (PBS)
Experimental: as §1, with “In addition, 0.2 mL of Schizophyllum commune-derived β-glucan (SPG with the structure of β-(1,6)-branched (1,3)-glucan; concentration=2 mg/mL) was orally administered to Comparative Experimental Group 1-2, and 0.2 mL of PBS was orally administered to Comparative Experimental Group 1-3.” left out
Specifically, in Experimental Groups 1-1 and 1-2 and Comparative Experimental Groups 1-1 to 1-3, the body weights of the mice were measured every week for 28 weeks after the start of administration of the test drugs, and the result is shown in FIG. 2.

[6] = Body weights and tissue weights of mice sacrificed after 28 weeks (Example 1, FIG. 3); conditions: compared to Comparative Experimental Group 1-3 (PBS)
Experimental: as §1
In addition, in Experimental Groups 1-1 and 1-2 and Comparative Experimental Groups 1-1 to 1-3, the mice were sacrificed after 28 weeks of administering the test drugs, and then body weights and tissue weights thereof measured, and the result is shown in FIG. 3.

[7] = Serum analysis of mice sacrificed after 28 weeks (Example 1, FIG. 4); conditions: compared to Comparative Experimental Group 1-3 (PBS)
Experimental: as §1
In addition, in Experimental Groups 1-1 and 1-2 and Comparative Experimental Groups 1-1 to 1-3, the mice were sacrificed after 28 weeks of administering the test drugs, and then subjected to serum analysis, and the result is shown in FIG. 4.

| Molecule | side effects (hepatotoxicity, increase in blood cholesterol level) [1] | weight loss effect [1] | free fatty acid content (serum) [2] | liver damage (serum analysis) [2] | total cholesterol content in blood [2] | triglyceride content (serum) [2] | body weight as the period of administering the test drugs progressed [3] | body weight at sacrifice [4] | tissue weight of each organ [4] | tissue weight of the liver [4] | body weight as the period of administering the test drugs progressed [5] | body weight at sacrifice [6] | tissue weight of each organ [6] | tissue weight of the liver [6] | free fatty acid content (serum) [7] | liver damage (serum analysis) [7] | total cholesterol content in blood [7] | triglyceride content (serum) [7] |
| --- | --- | --- | --- | --- | --- | --- | --- | --- | --- | --- | --- | --- | --- | --- | --- | --- | --- | --- |
| O=C(O)CC(O)(C(=O)O)C(O)C(=O)O (stereo not drawn) [Comparative Experimental Group 2-1, hydroxycitric acid] | side effects caused by hepatotoxicity and an increase in blood cholesterol level are problematic | a weight loss effect caused by reduced body fat is exhibited | decreased by more than half | had liver damage | increased in total cholesterol content in blood | decreased by more than half | greatly decreased in body weight | greatly decreased | greatly decreased | rather increased in tissue weight of the liver |  |  |  |  |  |  |  |  |
| conjugated linoleic acid [Comparative Experimental Group 1-1] | side effects caused by hepatotoxicity and an increase in blood cholesterol level are problematic | a weight loss effect caused by reduced body fat is exhibited |  |  |  |  |  |  |  |  | greatly decreased in body weight | greatly decreased | greatly decreased | rather increased in tissue weight of the liver | decreased by more than half | had liver damage | increased in total cholesterol content in blood | decreased by more than half |
| β-(1,6)-branched (1,3)-glucan [Comparative Experimental Group 1-2] |  | does not exhibit a significant weight loss effect |  |  |  |  | no change in body weight | almost no change | almost no change |  | no change in body weight | almost no change | almost no change |  |  |  |  |  |
